Measured values as given in patent US20240327382A1 (ALMAC DISCOVERY LIMITED, priority 2021, published 2024).

Each molecule was assayed against T1, Full-length USP19 (Homo sapiens, UniProt O94966) (assay: USP19 fluorescence polarisation (FP) assay, Ubiquitin-Lys-TAMRA substrate). Conditions: average of at least two duplicate experiments.
T1 construct: Full-length USP19 was purchased from Boston Biochem (E-576); purchased Boston Biochem E-576
T1 sequence (O94966 1-1318): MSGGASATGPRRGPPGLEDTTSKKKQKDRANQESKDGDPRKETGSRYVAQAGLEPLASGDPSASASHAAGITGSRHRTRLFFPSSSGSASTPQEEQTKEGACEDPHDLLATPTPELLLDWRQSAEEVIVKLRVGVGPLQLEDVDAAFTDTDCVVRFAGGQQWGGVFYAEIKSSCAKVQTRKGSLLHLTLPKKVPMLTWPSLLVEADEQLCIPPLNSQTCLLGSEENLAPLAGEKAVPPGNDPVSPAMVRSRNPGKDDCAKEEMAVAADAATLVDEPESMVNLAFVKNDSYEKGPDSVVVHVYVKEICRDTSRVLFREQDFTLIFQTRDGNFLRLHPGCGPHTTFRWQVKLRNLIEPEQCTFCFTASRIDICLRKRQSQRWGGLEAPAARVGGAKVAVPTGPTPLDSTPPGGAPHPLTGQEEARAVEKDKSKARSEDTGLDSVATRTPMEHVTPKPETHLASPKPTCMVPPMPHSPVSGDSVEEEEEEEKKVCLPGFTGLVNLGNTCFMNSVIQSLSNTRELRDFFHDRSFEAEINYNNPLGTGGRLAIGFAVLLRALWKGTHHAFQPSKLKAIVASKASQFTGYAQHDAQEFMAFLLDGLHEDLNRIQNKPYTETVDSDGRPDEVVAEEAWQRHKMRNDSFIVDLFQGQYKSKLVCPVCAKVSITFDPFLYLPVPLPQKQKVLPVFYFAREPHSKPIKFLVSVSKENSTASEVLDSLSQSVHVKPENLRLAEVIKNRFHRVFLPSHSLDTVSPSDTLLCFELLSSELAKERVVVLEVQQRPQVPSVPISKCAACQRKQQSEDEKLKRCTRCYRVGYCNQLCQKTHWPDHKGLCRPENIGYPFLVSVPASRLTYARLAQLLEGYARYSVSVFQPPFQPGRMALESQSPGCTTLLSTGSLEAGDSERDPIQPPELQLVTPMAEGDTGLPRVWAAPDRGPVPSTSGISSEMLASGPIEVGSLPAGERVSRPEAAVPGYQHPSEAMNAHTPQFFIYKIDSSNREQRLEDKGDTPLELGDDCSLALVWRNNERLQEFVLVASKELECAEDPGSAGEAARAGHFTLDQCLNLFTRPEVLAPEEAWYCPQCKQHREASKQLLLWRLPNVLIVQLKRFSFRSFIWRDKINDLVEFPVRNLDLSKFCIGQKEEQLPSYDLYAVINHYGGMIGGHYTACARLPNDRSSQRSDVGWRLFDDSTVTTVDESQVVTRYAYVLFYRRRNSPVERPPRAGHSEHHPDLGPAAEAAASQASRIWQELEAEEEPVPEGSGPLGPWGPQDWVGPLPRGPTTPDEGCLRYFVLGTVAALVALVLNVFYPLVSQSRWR
Format: biochemical
Procedure, shortened: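 Fluorescence polarisation (excitation 530 nm, parallel and perpendicular emission at 575 nm) was recorded every 15 min for 90 min after adding the ubiquitin-Lys-TAMRA isopeptide (500 nM as dispensed). Beforehand, the full-length enzyme (2.5 nM as dispensed) sat 30 min at RT with compound diluted from 200 μM to 2 μM in HEPES pH 7.4 buffer with 150 mM NaCl, 5 mM DTT, 0.05% BSA and 0.05% CHAPS. Values normalised to uninhibited wells gave IC50s by non-linear fitting, each the mean of two or more duplicate runs.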
Work on CN[C@@H]1CCN(C(=O)N2CC[C@@H](Cn3cnc(-c4ccccc4OC)cc3=O)C3(CCCC3)C2)[C@H](c2cccc(F)c2F)C1 [Example 149, 3-(((R)-7-((2S,4R)-2-(2,3-Difluorophenyl)-4-(methylamino)piperidine-1-carbonyl)-7-azaspiro[4.5]decan-10-yl)methyl)-6-(2-methoxyphenyl)pyrimidin-4(3H)-one] yielded an IC50 of under 10 nM. Work on O=C(N1CC[C@@H](Cn2cnc(-c3ccccc3)cc2=O)C2(CCCC2)C1)N1CC[C@@H](Nc2ccccc2)C[C@H]1c1ccccc1 [Example 150, 6-Phenyl-3-(((R)-7-((2S,4R)-2-phenyl-4-(phenylamino)piperidine-1-carbonyl)-7-azaspiro[4.5]decan-10-yl)methyl)pyrimidin-4(3H)-one] yielded an IC50 of 1000 to 20000 nM. CC1(N[C@@H]2CCN(C(=O)N3CC[C@@H](Cn4cnc(-c5ccccc5)cc4=O)C4(CCCC4)C3)[C@H](c3ccccc3)C2)CC1 [Example 151, 3-(((R)-7-((2S,4R)-4-((1-Methylcyclopropyl)amino)-2-phenylpiperidine-1-carbonyl)-7-azaspiro[4.5]decan-10-yl)methyl)-6-phenylpyrimidin-4(3H)-one] gave an IC50 of under 10 nM. Molecule O=C(N1CC[C@@H](Cn2cnc(C(F)F)cc2=O)C2(CCCC2)C1)N1CC[C@@H](NCC(F)F)C[C@H]1c1cc(F)ccc1F [Example 152, 3-(((R)-7-((2S,4R)-4-((2,2-Difluoroethyl)amino)-2-(2,5-difluorophenyl)piperidine-1-carbonyl)-7-azaspiro[4.5]decan-10-yl)methyl)-6-(difluoromethyl)pyrimidin-4(3H)-one] has an IC50 of 10 to 100 nM. CN[C@@H]1CCN(C(=O)N2CC[C@@H](Cn3cnc4ccc(F)cc4c3=O)C3(CCCC3)C2)[C@H](c2cc(F)cc(F)c2)C1 [Example 153, 3-(((R)-7-((2S,4R)-2-(3,5-Difluorophenyl)-4-(methylamino)piperidine-1-carbonyl)-7-azaspiro[4.5]decan-10-yl)methyl)-6-fluoroquinazolin-4(3H)-one] was tested, and the IC50 was under 10 nM. Molecule CC(C)(C)OC(=O)CN[C@@H]1CCN(C(=O)N2CC[C@@H](Cn3cnc(-c4ccccc4)cc3=O)C3(CCCC3)C2)[C@H](c2cc(F)ccc2F)C1 [Example 154, tert-Butyl ((2S,4R)-2-(2,5-difluorophenyl)-1-((R)-10-((6-oxo-4-phenylpyrimidin-1(6H)-yl)methyl)-7-azaspiro[4.5]decane-7-carbonyl)piperidin-4-yl)glycinate] has an IC50 of under 10 nM. For CC(=O)N[C@@H]1CCN(C(=O)N2CC[C@@H](Cn3cnc(-c4ccccc4)cc3=O)C3(CCCC3)C2)[C@H](c2cc(F)ccc2F)C1 [Example 155, N-((2S,4R)-2-(2,5-Difluorophenyl)-1-((R)-10-((6-oxo-4-phenylpyrimidin-1(6H)-yl)methyl)-7-azaspiro[4.5]decane-7-carbonyl)piperidin-4-yl)acetamide], the IC50 was under 10 nM. With CCN[C@@H]1CCN(C(=O)N2CC[C@@H](Cn3cnc(-c4ccccc4)cc3=O)C3(CCCC3)C2)[C@H](c2cc(F)ccc2F)C1 [Example 156, 3-(((R)-7-((2S,4R)-2-(2,5-Difluorophenyl)-4-(ethylamino)piperidine-1-carbonyl)-7-azaspiro[4.5]decan-10-yl)methyl)-6-phenylpyrimidin-4(3H)-one] the IC50 was under 10 nM. Molecule O=C(N1CC[C@@H](Cn2cnc3ccc(F)cc3c2=O)C2(CCCC2)C1)N1CC[C@@H](NCC(F)F)C[C@H]1c1cc(F)ccc1F [Example 157, 3-(((R)-7-((2S,4R)-4-((2,2-Difluoroethyl)amino)-2-(2,5-difluorophenyl)piperidine-1-carbonyl)-7-azaspiro[4.5]decan-10-yl)methyl)-6-fluoroquinazolin-4(3H)-one] has an IC50 of under 10 nM. With O=C(O)CN[C@@H]1CCN(C(=O)N2CC[C@@H](Cn3cnc(-c4ccccc4)cc3=O)C3(CCCC3)C2)[C@H](c2cc(F)ccc2F)C1 [Example 158] the IC50 was under 10 nM. CN[C@@H]1CCN(C(=O)N2CC[C@@H](CN3CCOCC3=O)C3(CCCC3)C2)[C@H](c2cc(F)ccc2F)C1 [Example 159, 4-(((R)-7-((2S,4R)-2-(2,5-Difluorophenyl)-4-(methylamino)piperidine-1-carbonyl)-7-azaspiro[4.5]decan-10-yl)methyl)morpholin-3-one] was tested, and the IC50 was under 10 nM. With CC(C)N[C@@H]1CCN(C(=O)N2CC[C@@H](Cn3cnc(-c4ccccc4)cc3=O)C3(CCCC3)C2)[C@H](c2cc(F)ccc2F)C1 [Example 160, 3-(((R)-7-((2S,4R)-2-(2,5-Difluorophenyl)-4-(isopropylamino)piperidine-1-carbonyl)-7-azaspiro[4.5]decan-10-yl)methyl)-6-phenylpyrimidin-4(3H)-one] the IC50 was under 10 nM. Work on O=C(N1CC[C@@H](Cn2cnc(-c3ccccc3)cc2=O)C2(CCCC2)C1)N1CC[C@@H](NCCO)C[C@H]1c1ccccc1 [Example 161, 3-(((R)-7-((2S,4R)-4-((2-Hydroxyethyl)amino)-2-phenylpiperidine-1-carbonyl)-7-azaspiro[4.5]decan-10-yl)methyl)-6-phenylpyrimidin-4(3H)-one] yielded an IC50 of under 10 nM. CCN[C@@H]1CCN(C(=O)N2CC[C@@H](Cn3cnc4ccc(F)cc4c3=O)C3(CCCC3)C2)[C@H](c2cc(F)ccc2F)C1 [Example 162, 3-(((R)-7-((2S,4R)-2-(2,5-Difluorophenyl)-4-(ethylamino)piperidine-1-carbonyl)-7-azaspiro[4.5]decan-10-yl)methyl)-6-fluoroquinazolin-4(3H)-one] showed an IC50 of under 10 nM. CN[C@@H]1CCN(C(=O)N2CC[C@@H](Cn3cnc(C4CC4)cc3=O)C3(CCCC3)C2)[C@H](c2cc(F)ccc2F)C1 [Example 163, 6-Cyclopropyl-3-(((R)-7-((2S,4R)-2-(2,5-difluorophenyl)-4-(methylamino)piperidine-1-carbonyl)-7-azaspiro[4.5]decan-10-yl)methyl)pyrimidin-4(3H)-one] was tested, and the IC50 was under 10 nM. O=C(N[C@@H]1CCN(C(=O)N2CC[C@@H](Cn3cnc(-c4ccccc4)cc3=O)C3(CCCC3)C2)[C@H](c2cc(F)ccc2F)C1)C1CC1 [Example 164, N-((2S,4R)-2-(2,5-Difluorophenyl)-1-((R)-10-((6-oxo-4-phenylpyrimidin-1(6H)-yl)methyl)-7-azaspiro[4.5]decane-7-carbonyl)piperidin-4-yl)cyclopropanecarbox-amide] showed an IC50 of under 10 nM. With O=C(N[C@@H]1CCN(C(=O)N2CC[C@@H](Cn3cnc(-c4ccccc4)cc3=O)C3(CCCC3)C2)[C@H](c2cc(F)ccc2F)C1)c1ccccn1 [Example 165, N-((2S,4R)-2-(2,5-Difluorophenyl)-1-((R)-10-((6-oxo-4-phenylpyrimidin-1(6H)-yl)methyl)-7-azaspiro[4.5]decane-7-carbonyl)piperidin-4-yl)picolinamide] the IC50 was 10 to 100 nM. Molecule CN[C@@H]1CCN(C(=O)N2CC[C@@H](Cn3cnc4ccc(F)cc4c3=O)C3(CCCC3)C2)[C@H](c2cccc(F)c2F)C1 [Example 166, 3-(((R)-7-((2S,4R)-2-(2,3-Difluorophenyl)-4-(methylamino)piperidine-1-carbonyl)-7-azaspiro[4.5]decan-10-yl)methyl)-6-fluoroquinazolin-4(3H)-one] has an IC50 of under 10 nM. Work on CN[C@@H]1CCN(C(=O)N2CC[C@@H](Cn3cnc4ccc(F)cc4c3=O)C3(CCCC3)C2)[C@H](c2cccc(F)c2)C1 [Example 167, 6-Fluoro-3-(((R)-7-((2S,4R)-2-(3-fluorophenyl)-4-(methylamino)piperidine-1-carbonyl)-7-azaspiro[4.5]decan-10-yl)methyl)quinazolin-4(3H)-one] yielded an IC50 of under 10 nM. Work on CN[C@@H]1CCN(C(=O)N2CC[C@@H](CN3CCC(c4ccccc4)=CC3=O)C3(CCCC3)C2)[C@H](c2cc(F)ccc2F)C1 [Example 168, 1-(((R)-7-((2S,4R)-2-(2,5-Difluorophenyl)-4-(methylamino)piperidine-1-carbonyl)-7-azaspiro[4.5]decan-10-yl)methyl)-4-phenyl-5,6-dihydropyridin-2(1H)-one] yielded an IC50 of under 10 nM.
